Laboratory results as given in patent US7993884B2, “Beta-xylosidase for conversion of plant cell wall carbohydrates to simple sugars” (The United States of America as represented by the …, priority 2006, dated 2011).
Values joined by “and” are separate entries in the source; they are usually repeats but may differ in a detail not shown here. Equal values may be shown once. Read-outs that look alike come from different tables or passages of the source.

Tests used:
[1] = target: T1, Selenomonas ruminantium GA192 β-D-xylosidase (SXA), wild type, SEQ ID NO: 2 (Pseudoselenomonas ruminantium, UniProt O52575); assay: Steady-state kinetics of SXA with X2-X6, improved quenching, HPLC (Example 3); conditions: for factor by which kcat is higher than that of the Bacillus pumilus enzyme: SXA pH 5.3 vs B. pumilus pH 7.15, 25° C
Procedure: (§1) Samples (25 μL) were injected onto the column equilibrated with 0.1 M NaOH and developed with a 5-min linear gradient (0.1 M NaOH to 33 mM sodium acetate) at ˜25° C. and a flow rate of 1 mL min^−1.
(§2) Samples were kept on wet ice or the HPLC autosampler at 5° C. until analyzed by HPLC. Initial rates, calculated from linear regressions of the [D-xylose] produced versus time, were fitted to Eq. 1 to determine steady-state kinetic parameters.

SXA [2] = target: T2, SXA (Selenomonas ruminantium, UniProt O52575); conditions: read-out: Km^4NPX; pH 5.3, 25° C., HPLC of D-xylose
Source text: (§3) Concentrations of D-xylose produced versus time were fitted to lines for determination of initial rates. For determination of steady-state kinetic parameters, initial rates were fitted to Eq. 2 (competitive inhibition).

SXA [3] = target: T2, SXA; conditions: for relative kcat values: pH 5.3 and 25° C., relative to A2
Procedure: (§4) Samples (25 μL) were injected onto the column equilibrated with 0.1 M NaOH and developed with a 15-min linear gradient (0.1 M NaOH to 15 mM sodium acetate) at ˜25° C. and a flow rate of 1 mL min^−1.
(§5) Before (time=0 min) and after (time=1-6 min) initiating reactions with enzyme (7 μL), samples (0.05-0.1 mL) were removed and quenched with an equal volume of 0.5 M acetic acid and frozen. Following lyophilization, samples were dissolved in H2O and analyzed by HPLC. […] Results from two replicate reactions were combined to provide data points for the progress curves.
(§6) Before and after addition of enzyme (7 μL), 25-μl aliquots of the reaction mixtures were directly injected onto the HPLC column for quantification of product L-arabinose.

[4] = target: Selenomonas ruminantium GA192 β-D-xylosidase (SXA, parent SEQ ID NO: 2) variant D127A (Pseudoselenomonas ruminantium, UniProt O52575, D127A); assay: Steady-state kinetics of SXA mutant D127A with 4NPX
Procedure: (§7) Site-directed mutagenesis was performed using the QuikChange site-directed mutagenesis kit (Stratagene) according the manufacturer's instructions. […] Complete sequences were determined on a 3700 sequencer (Applied Biosystems) using T7 promoter and specific primers to confirm that only the intended mutations had been introduced. Lasergene software (DNAStar) was used to analyze the sequence data. pSRA1 and its mutated plasmids were used for the transformation of E. coli BL21(DE3). Transformants were inoculated to 50 mL Luria-Bertani (LB) broth supplemented with 50 mg ampicillin/mL and the flask was shaken overnight at 250 rpm and 37° C. Twenty mL of the overnight culture were transferred to a 2.8-liter baffled flask containing 1.0 liter SOB medium [2.0% tryptone, 0.5% yeast extract, 0.05% NaCl, 0.0186% KCl (all in wt/vol) and 10 mM MgSO4] supplemented with 50 mg ampicillin/mL. The culture was shaken at 250 rpm and 37° C. […] Cells were harvested by centrifugation and cell pellets were stored at −80° C. until use.
(§8) Initial purification steps and diafiltration steps were performed at 4° C. Chromatography was at room temperature (˜24° C.). Cells were thawed, suspended in 40 mL of 50 mM Tris-HCl, pH 7.5 (Buffer A) containing Complete protease inhibitor cocktail (Roche) and disrupted by sonication. […] The column was washed until absorbance at 280 nm of the eluate became minimal (˜200 mL) and developed with a 500-mL linear gradient (Buffer A+30% saturated ammonium sulfate to Buffer A).
(§9) Two methods were employed for determining initial rates. […] Initial rates were calculated from fitting the absorbance readings versus time to a line (minimum of 4 points per reaction progression) and by using an extinction coefficient of 17.4 mM^−1 cm^−1. […] The concentration of 4NP substrates was determined by incubating the substrate with excess enzyme until an end point was reached, adding an aliquot (0.01 to 0.1 mL) to 0.1 M NaOH, recording the absorbance at 400 nm and using the extinction coefficient of 18.3 cm^−1mM^−1. […]

SXA [5] = target: T2, SXA; assay: SXA-catalyzed hydrolysis of 4NP-glycoside substrates, initial rates (Methods A and B); assay type: biochemical;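 further: initial rates from 4-nitrophenol release, tracked by absorbance over roughly 0.3 min and converted using product-minus-substrate extinction differences, in 1 mL mixtures started by enzyme addition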
Procedure: (§10) Two methods were employed for determining initial rates. […] Initial rates were calculated from fitting the absorbance readings versus time to a line (minimum of 4 points per reaction progression) and by using an extinction coefficient of 17.4 mM^−1 cm^−1. In Method B (continuous monitoring), temperature-equilibrated reactions (1 mL) were monitored at 380 nm (for pH values below 6) or 400 nm (for pH values of 6 and above). Reactions were generally monitored 0.3 min for initial rate determinations. Delta extinction coefficients (product-substrate) used for molar conversion were determined by subtracting the absorbance of substrate (at pH 5 so even very minor contaminating 4NP would not contribute) from the absorbance of 4NP for each reaction condition. […] The concentration of 4NP substrates was determined by incubating the substrate with excess enzyme until an end point was reached, adding an aliquot (0.01 to 0.1 mL) to 0.1 M NaOH, recording the absorbance at 400 nm and using the extinction coefficient of 18.3 cm^−1mM^−1. Unless indicated otherwise, for both Methods A and B, reactions were initiated by adding a small aliquot of enzyme (generally 7 μl of enzyme diluted into 10 mM sodium phosphate, pH 7.0, and incubated on wet ice or at ˜25° C.) to the 1-mL, temperature-equilibrated (25° C.) reaction mixtures. For pH studies, buffers of constant ionic strength (I=0.3 M), adjusted with NaCl, were used as indicated: 100 mM succinate-NaOH (pH 4.3-6), 100 mM sodium phosphate (pH 6-8), 30 mM sodium pyrophosphate (pH 8-9), glycine-NaOH (pH 9) and glycylglycine-NaOH (pH 9).

[6] = target: T1, Selenomonas ruminantium GA192 β-D-xylosidase (SXA), wild type, SEQ ID NO: 2; assay: Steady-state kinetics of SXA with 4NPX2, A2 and X2-X6 by HPLC (Example 1); conditions: for relative kcat value: A2 = 1
Procedure: as §4, §5, §6
Quenched samples were analyzed by HPLC for D-xylose. Initial rates were determined from linear regressions of [D-xylose] produced versus reaction time. […] Four 1-mL replicate reactions were conducted to supply data points for the progress curves. Two parallel reactions were conducted, under the same conditions with the same reaction components, the absorbance at 400 nm was continuously monitored (20 min) for 4NP production, and the absorbance values were converted to mM 4NP concentrations by using a delta extinction coefficient (product-substrate) of 8.22 mM^−1 cm^−1.

[7] = target: Selenomonas ruminantium GA192 β-D-xylosidase (SXA, parent SEQ ID NO: 2) variant E186A (Pseudoselenomonas ruminantium, UniProt O52575, E186A); assay: Steady-state kinetics of SXA mutant E186A with 4NP substrates
Procedure: as §7
(§11) Initial purification steps and diafiltration steps were performed at 4° C. Chromatography was at room temperature (˜24° C.). Cells were thawed, suspended in 40 mL of 50 mM Tris-HCl, pH 7.5 (Buffer A) containing Complete protease inhibitor cocktail (Roche) and disrupted by sonication. Following centrifugation, the supernatant was brought to 30% saturation with respect to ammonium sulfate and centrifuged. […] The column was washed until absorbance at 280 nm of the eluate became minimal (˜200 mL) and developed with a 500-mL linear gradient (Buffer A+30% saturated ammonium sulfate to Buffer A).
(§12) Two methods were employed for determining initial rates. […] Initial rates were calculated from fitting the absorbance readings versus time to a line (minimum of 4 points per reaction progression) and by using an extinction coefficient of 17.4 mM^−1 cm^−1. […] The concentration of 4NP substrates was determined by incubating the substrate with excess enzyme until an end point was reached, adding an aliquot (0.01 to 0.1 mL) to 0.1 M NaOH, recording the absorbance at 400 nm and using the extinction coefficient of 18.3 cm^−1mM^−1. Unless indicated otherwise, for both Methods A and B, reactions were initiated by adding a small aliquot of enzyme (generally 7 μl of enzyme diluted into 10 mM sodium phosphate, pH 7.0, and incubated on wet ice or at ˜25° C.) to the 1-mL, temperature-equilibrated (25° C.) reaction mixtures. For pH studies, buffers of constant ionic strength (I=0.3 M), adjusted with NaCl, were used as indicated: 100 mM succinate-NaOH (pH 4.3-6), 100 mM sodium phosphate (pH 6-8), 30 mM sodium pyrophosphate (pH 8-9), glycine-NaOH (pH 9) and glycylglycine-NaOH (pH 9).

[8] = target: Selenomonas ruminantium GA192 β-D-xylosidase (SXA, parent SEQ ID NO: 2) variant H248A (Pseudoselenomonas ruminantium, UniProt O52575, H248A); assay: Steady-state kinetics of SXA mutant H248A with 4NPX
Procedure: as §7, §8, §9

[9] = target: Selenomonas ruminantium GA192 β-D-xylosidase (SXA, parent SEQ ID NO: 2) variant D14A (Pseudoselenomonas ruminantium, UniProt O52575, D14A); assay: Steady-state kinetics of SXA mutant D14A with 4NP substrates
Procedure: as §7, §11, §12

[10] = target: Selenomonas ruminantium GA192 β-D-xylosidase (SXA, parent SEQ ID NO: 2) variant R290A (Pseudoselenomonas ruminantium, UniProt O52575, R290A); assay: Steady-state kinetics of SXA mutant R290A with 4NPX
Procedure: as §7, §11, §12

SXA [11] = target: T2, SXA; assay: biochemical; conditions: read-out: Km^4NPX; 100 mM succinate-NaOH, pH 5.3, 25° C.
[12] = target: T1, Selenomonas ruminantium GA192 β-D-xylosidase (SXA), wild type, SEQ ID NO: 2; assay: Steady-state kinetics of SXA with 4NP-glycosides (Example 1, Methods A and B)
Procedure: Kinetics with 4NP Substrates
as §10

SXA [13] = target: T2, SXA; assay: biochemical
Source text: as §3

[14] = test system: Bacillus pumilus β-xylosidase; conditions: pH 7, 25° C.; cited from earlier work
SXA [15] = target: T2, SXA
Procedure: as §1, §2

[16] = target: T3, enzyme from Bacillus pumilus (Bacillus pumilus, UniProt P07129); conditions: pH 7, 25° C.; cited from earlier work
T3 sequence (P07129 1-535): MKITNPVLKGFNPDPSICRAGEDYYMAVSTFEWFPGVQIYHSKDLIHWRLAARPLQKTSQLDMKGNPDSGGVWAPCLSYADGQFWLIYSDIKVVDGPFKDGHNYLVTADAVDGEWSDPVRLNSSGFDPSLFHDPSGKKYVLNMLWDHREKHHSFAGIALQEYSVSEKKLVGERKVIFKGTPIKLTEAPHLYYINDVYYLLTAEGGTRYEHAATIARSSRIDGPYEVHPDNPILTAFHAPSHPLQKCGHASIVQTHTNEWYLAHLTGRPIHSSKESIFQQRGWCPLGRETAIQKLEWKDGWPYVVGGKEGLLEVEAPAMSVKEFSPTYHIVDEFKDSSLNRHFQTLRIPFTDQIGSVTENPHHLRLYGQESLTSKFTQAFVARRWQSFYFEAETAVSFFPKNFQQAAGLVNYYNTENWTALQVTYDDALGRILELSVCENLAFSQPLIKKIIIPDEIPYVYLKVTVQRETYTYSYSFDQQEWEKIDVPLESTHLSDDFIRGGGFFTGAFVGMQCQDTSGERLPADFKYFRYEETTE

[17] = 100 mM succinate-NaOH, pH 5.3, 25° C, Method A
[18] = Exper. 1: succinate pH 5.3, Method A, η/ηo 1.00
[19] = Exper. 1: succinate pH 5.3, Method A, η/ηo 6.12 (50% sucrose)
[20] = Exper. 2: MES pH 6.00, Method B, η/ηo 1.00
[21] = Exper. 2: MES pH 6.00, Method B, η/ηo 6.85 (50% sucrose)
[22] = I=0.3 M, 25° C., Eq. 7 (4NPX), Eq. 5 (4NPA)
[23] = 100 mM succinate-NaOH, pH 5.3, 25° C
[24] = same reaction conditions, pH 5.3, 25° C.

O=[N+]([O-])c1ccc(O[C@@H]2OC[C@@H](O)[C@H](O)[C@H]2O)cc1 [4NPX, 4-nitrophenyl-β-D-xylopyranoside]
factor by which kcat is higher than that of the Bacillus pumilus enzyme [1]: 4 | Km (SXA [2]): 758 ± 59 µM | relative kcat values (SXA [3]): 340 | kcat [4, 17]: 0.000129 ± 0.000003 s⁻¹ | factor by which kcat is degraded vs wild type ([4]; pH 5.3, 25° C.): 24000 | pH-independent kcat (SXA [5]): 32.7±0.5 s^−1 | pH-independent kcat/Km (SXA [5]): 58.7±1.3 s^−1 mM^−1 | Relative Rate (SXA [5]; 5 mM 4NP glycoside, 100 mM succinate-NaOH, pH 5.3, 25° C., Method A, initial rate relative to 4NPX): 1.00 ± 0.01 | Km (SXA [5]; 100 mM sodium phosphate, pH 7.0, 25° C., Method B): 443 ± 8 µM | pH-independent 1/Km (SXA [5]; 1/Km versus pH, Eq. 4 (4NPX), Eq. 5 (4NPA)): 2.65±0.081 mM^−1 | pKa of 1/Km versus pH (single protonatable group) (SXA [5]; Eq. 4): 5.6 and 5.56±0.08 | Km (SXA [5]; [18]): 742 ± 41 µM | kcat Rel. to η/ηo = 1 (SXA [5]; [18]): 1.00 | Km (SXA [5]; [19]): 690 ± 35 µM | kcat Rel. to η/ηo = 1 (SXA [5]; [19]): 0.910 ± 0.0152 | Km (SXA [5]; [20]): 699 ± 35 µM | kcat Rel. to η/ηo = 1 (SXA [5]; [20]): 1.00 | Km (SXA [5]; [21]): 637 ± 81 µM | kcat Rel. to η/ηo = 1 (SXA [5]; [21]): 0.920 ± 0.040 | pKa1 of kcat versus pH (SXA [5]; I=0.3 M, 25° C., Eq. 5): 3.5 and ~3.6 and 3.54±0.10 | pKa1 of kcat/Km versus pH (SXA [5]; I=0.3 M, 25° C., Eq. 5): ~5.0 and 5.00±0.04 | pKa2 of kcat versus pH (SXA [5]; I=0.3 M, 25° C., Eq. 5): 6.9 and 6.90±0.03 | pKa2 of kcat/Km versus pH (SXA [5]; I=0.3 M, 25° C., Eq. 5): 7.23±0.04 | pKa1 of 1/Km versus pH (SXA [5]; [22]): 4.8 and 4.81±0.21 | pKa2 of 1/Km versus pH (SXA [5]; [22]): 6.4 and 6.39±0.26 | higher affinity of dianionic SXA (D14^−E186^−) than monoanionic SXA (D14^−E186^H) (SXA [5]; from pH dependency of 1/Km): ~2 fold and 1.9 fold | factor by which kcat of SXA is higher than that of the B. pumilus enzyme (SXA [5]; substrate 4NPX, SXA pH 5.3, 25° C. (Example 1) vs B. pumilus pH 7.15, 25° C.): 4 | relative kcat value ([6]; pH 5.3, 25° C): 340 | kcat [7, 17]: 0.00267 ± 0.00005 s⁻¹ | factor by which kcat is degraded vs wild type ([7]; pH 5.3, 25° C.): 12000 | kcat [8, 17]: 0.0950 ± 0.0025 s⁻¹ | factor by which kcat is degraded vs wild type ([8]; pH 5.3, 25° C.): 330 | kcat [9, 17]: 0.00954 ± 0.00016 s⁻¹ | factor by which kcat is degraded vs wild type ([9]; pH 5.3, 25° C.): 3300 | kcat ([10]; 100 mM succinate-NaOH, pH 5.3, 25° C, Method A, not well determined (highest 4NPX 5 mM)): 0.0126 ± 0.0020 s⁻¹ | factor by which kcat is degraded vs wild type ([10]; pH 5.3, 25° C.): 2500 | increase of Km(4NPX) vs wild type ([10]; pH 5.3, 25° C.): 70 fold | Km (SXA [11]): 716 ± 32 µM | kcat ([12]; 100 mM MES-NaOH, pH 6.00, 25° C, Method B, 50% sucrose, η/ηo 6.85): 30.1 ± 1.1 s⁻¹ | kcat ([12]; 100 mM MES-NaOH, pH 6.00, 25° C, Method B, η/ηo 1.00): 32.9 ± 0.5 s⁻¹ | kcat ([12]; 100 mM succinate-NaOH, pH 5.3, 25° C, Method A, no sucrose): 32.8 ± 0.6 s⁻¹ and 31.1 ± 0.4 s⁻¹ | affinity of dianionic SXA (D14^−E186^−), higher than that of monoanionic SXA (D14^−E186^H) ([12]; from pH dependence of 1/Km): ~2 fold and 1.9 fold | kcat ([12]; pH 5.3, 25° C, Method A, 50% sucrose, η/ηo 6.12): 29.8 ± 0.5 s⁻¹ | kcat Rel. to η/ηo = 1 ([12]; pH 5.3, η/ηo 6.12): 0.910 ± 0.0152 | kcat Rel. to η/ηo = 1 ([12]; pH 6.00, η/ηo 6.85): 0.920 ± 0.040 | pH-independent kcat ([12]; pH profile, I=0.3 M, Method B): 32.7±0.5 s^−1

O=[N+]([O-])c1ccc(O)cc1 [4NP, 4-nitrophenol]
Ki (SXA [13]): 6.28 ± 0.55 mM

OC1OC[C@@H](O[C@@H]2OC[C@@H](O)[C@H](O)[C@H]2O)[C@H](O)[C@H]1O (stereo partly drawn) [X2, 1,4-β-D-xylobiose]
kcat [1, 23]: 185 ± 3 s⁻¹ | factor by which kcat is higher than that of the Bacillus pumilus enzyme [1]: 10 | affinity of dianionic SXA (D14^−E186^−), lower than that of monoanionic SXA (D14^−E186^H) ([1]; from pH dependence of 1/Km): 2.9 fold and 3 fold | kcat ([1]; pH 5.3, 25° C (improved technique), approximate): approximately 185 sec^−1 | pH-independent kcat ([1]; pH profile, I=0.3 M, 25° C): 172±2 | kcat [6, 23]: 412 s⁻¹ and 412 ± 18 s⁻¹ | kcat ([6]; pH 5.3, 25° C (Example 1), approximate): approximately 410 sec^−1 | relative kcat value ([6]; pH 5.3, 25° C): 5600 | kcat relative to that of substrates X3-X6 ([6]; pH 5.3, 25° C.): 2-4 fold | kcat ratio X2 vs 4NPX [6, 24]: 12 fold and 13 fold | kcat [14]: 18 s⁻¹

OC1OC[C@@H](O[C@@H]2OC[C@@H](O)[C@H](O)[C@H]2O)[C@H](O)[C@H]1O (stereo partly drawn) [X2, 1,4-β-D-Xylobiose]
Km (SXA [3]; 100 mM succinate-NaOH, pH 5.3, 25° C. (Example 1)): 4200 µM | dissociation constant for the transition state (SXA [3]; assuming noncatalyzed rate similar to a-methylglucopyranoside): ~10^−19 | time of peak height of intermediate product, observed (SXA [3]; hydrolysis of X4, pH 5.30, 25° C.): 2940 s | time of peak height of intermediate product, observed (SXA [3]; hydrolysis of X6, pH 5.30, 25° C.): 13384 s | relative kcat values (SXA [3]): 5600 | kcat, fold larger than with 4NPX (SXA [3]; [24]): 12 fold and 13 fold | kcat/Km, fold larger than with 4NPX (SXA [3]; [24]): 2 fold | pH-independent kcat (SXA [15]): 172±2 | Km (SXA [15]; 100 mM succinate-NaOH, pH 5.3, 25° C., improved quench (Example 3)): 2060 ± 80 µM | pKa of kcat versus pH (single group) (SXA [15]; Eq. 5, I=0.3 M, 25° C.): 7.57±0.03 | pKa1 of kcat/Km versus pH (SXA [15]; Eq. 6, I=0.3 M, 25° C.): 4.86±0.06 | pKa2 of kcat/Km versus pH (SXA [15]; Eq. 6, I=0.3 M, 25° C.): 7.01±0.05 | pKa1 of 1/Km versus pH (SXA [15]; Eq. 7, I=0.3 M, 25° C.): 4.78±0.11 | pKa2 of 1/Km versus pH (SXA [15]; Eq. 7, I=0.3 M, 25° C.): 7.03±0.17 | factor by which kcat of SXA is higher than that of the Bacillus pumilus enzyme (SXA [15]; SXA pH 5.3, 25° C. vs B. pumilus pH 7.15, 25° C.): 10 | lower affinity of dianionic SXA (D14^−E186^−) than monoanionic SXA (D14^−E186^H) (SXA [15]; from pH dependencies of 1/Km): 2.9 fold and 3 fold | pH-independent kcat/Km (SXA [15]; kcat/Km versus pH, Eq. 6, I=0.3 M, 25° C. (FIG. 19)): 123±5 | kcat lower than previous determination (Example 1) (SXA [15]; pH 5.3, 25° C.): 55% | kcat/Km lower than previous determination (Example 1) (SXA [15]; pH 5.3, 25° C.): 9% | kcat, Bacillus pumilus enzyme [16]: 18 s⁻¹
